Reference: patent publication US20240197761A1, “FUCOSYLATION AND IMMUNE MODULATION IN CANCER” (H. LEE MOFFITT CANCER CENTER AND RESEARCH INSTITUTE, INC., priority 2021, published 2024)

Tested on: HLA-DRB1 in WM793 and 1205Lu cells
Assay: Cell surface fucosylation and HLA-DRB1 (flow cytometry), HLA-DRB1 mRNA (qRT-PCR) and protein (IB) in melanoma cells
Type: cell-based, human
Conditions: 250 μM, 72 h
Description: FIGS. 18A-18F show N-linked fucosylation of HLA-DRB1 at N48 regulates its cell surface localization and is required for tumor suppression and increased TIL abundance. (a) (upper) Amino acid sequence alignments showing conservation of predicted N- and O-linked fucosylation sites in human HLA-DRB1 (N48 and T129) and mouse H2EB1 (N46 and T147). Structural modeling of the HLA-DRB1:HLA-DM (lower left) and CD4:HLA-DRB1:TCR (lower right) complexes. Potential glycosylation sites, N48 and T129, of HLA-DR1 beta chain are shown as sticks. CD4 (cyan), HLA-DRB1 (yellow), antigen peptide (magenta), and TCR (green)(lower right). (b) HLA-DRB1 peptide fragment identified by nano-LC/MS to be fucosylated on N48, with predicted HexNAc(4)Hex(3)Fuc(1) glycan structure shown above. (c) Lectin pull down (LPD) and IB analyses of EV and V5-tagged wild-type HLA-DRB1 (WT)-, HLA-DRB1 N48G (N48G)-, and HLA-DRB1 T129A (T129A)-expressing WM793 cells. (d) DMSO- or fucosyltransferase inhibitor (FUTi)-treated WM793 cells immunofluorescently stained for endogenous HLA-DRB1, KDEL (ER marker), and DAPI (20× magnification). (e) Flow cytometric analysis for relative cell surface fucosylation (upper) and cell surface HLA-DRB1 (upper middle), qRT-PCR analysis of relative HLA-DRB1 mRNA levels (lower middle), and IB analysis of HLA-DRB1 protein levels (lower) in WM793 and 1205Lu cells treated with DMSO (D), 250 μM FUTi (i), or 250 μM L-fuc (LF). (f) Volumetric growth curves for shNT (non-targeting shRNA)+EV (control SW1 tumors)(upper left) or shEB1 tumors reconstituted with EV (upper right), EB1 WT (lower left), or EB1 N46G (lower right) in C3H/HeN mice. Control (grey) or L-fucose supplemented water (red, 100 mM; ▾=initiated supplementation) was provided ad libitum. The tumor growth curves are means±SEM from ≥7 mice per group. *=p<0.05.
FIGS. 19A and 19B show nano-LC/MS spectral identification of fucosylated HLA-DRB1 peptide; and the effects of modulating fucosylation on HLA-DRB1 localization, total protein, and mRNA levels (a) nano-LC/MS/MS spectra showing fucosylated HLA-DRB1 peptide (arrow). (b) Flow cytometric analysis for relative cell surface fucosylation (upper) and cell surface HLA-DRB1 levels (upper middle), qRT-PCR analysis of relative HLA-DRB1 mRNA levels (lower middle), and IB analysis of HLA-DRB1 protein levels (lower) in indicated melanoma cell lines treated with DMSO (D), 250 μM FUTi (i), or 250 μM L-fuc (LF). *=p<0.05.
HLA-DRB1, and PD-L1: Indicated cells were treated for 72 h with DMSO, 250 μM fucosyltransferase inhibitor (FUTi) (Millipore Sigma (St. Louis, MO)), or 250 μM of L-fucose (Biosynth (Oak Terrace, IL)). After 72 h, cells were stained with 0.1 μM PKH26 (Millipore Sigma (St. Louis, MO)) prior to fixation in 4% formaldehyde solution. The cells were stained with anti-HLA-DRB1 and fluorescein AAL, or anti-human or anti-mouse PD-L1 overnight. The following day the cells were washed 3 times prior to adding AlexaFluor 594 donkey anti-rabbit. Cells were washed 3 times and then subject to flow cytometric analyses using a FACSCalibur (BD Biosciences (San Jose, CA)). Samples were analyzed using FlowJo analysis software (BD Biosciences (San Jose, CA)). Median values of DRB1 and AAL were normalized to PKH26 values and statistical analysis was performed using GraphPad Prism.
Cells were lysed on ice in RIPA lysis buffer (25 mM Tris-HCl pH 7.6, 150 mM NaCl, 5 mM EDTA, 1% NP-40 or 1% Triton X-100, 1% sodium deoxycholate, 0.1% SDS in diH20+protease and phosphatase inhibitors (ThermoFisher Scientific (Waltham, MA)), briefly sonicated, pelleted, and the resulting lysates were normalized by protein concentration using DC assay (BioRad Laboratories, (Hercules, CA)). The indicated samples were subjected to (12%) SDS-PAGE and immunoblot analysis using the indicated antibodies. Immunoblot imaging and analysis was performed using either an Odyssey FC scanner and ImageStudio (LiCor Biosciences, Lincoln, NE) or film. […]

Structure (SMILES) | HLA-DRB1 mRNA and protein levels | cell surface HLA-DRB1 | cell surface fucosylation
CC(=O)OC1O[C@@H](C)[C@@H](OC(C)=O)[C@@H](OC(C)=O)[C@@H]1F (stereo partly drawn) [FUTi, 2F-peracteyl-fucose, reference compound] | remained unchanged | decreased | decreased
C[C@H](O)[C@@H](O)[C@@H](O)[C@H](O)C=O [L-fucose] | remained unchanged | increased | increased
